Test results from patent US8734775B2, “Chemokine derived peptides that bind with chemokine receptor CXCR3 and uses for chronic wound and angiogenesis inhibition treatments” (University of Pittsburgh, priority 2011, dated 2014).

Tests used:
HMEC-1 cells = assay: Tube formation on growth factor reduced Matrigel; type: cell-based, human
Method: To determine whether the IP-10 peptide is able to inhibit tube formation, HMEC-1 cells were grown on growth factor reduced (“GFR”) Matrigel in the presence of VEGF165, IP-10 and/or IP-10dp and the cultures inspected and compared to asses the relative degree of tube formation according to the following procedure. GFR Matrigel 10 μl/well (μ-angiogenesis slide, Ibidi), was incubated for 15 minutes at 37° C. HMEC-1 cells (10,000 cells/well) were re-suspended in 1.0% FBS MDCB131 media containing VEGF (75 ng/ml), IP-10 (300 ng/ml) and IP-10dp (10 μM) and or anti-CXCR3 neutralizing antibody. Treated cells (1×10^4 cells/well) were added to 24-well culture plates coated with growth factor reduced Matrigel and incubated for 24 hours at 37° C. to allow tube formation.
The cells cultures were then imaged for tube formation using an Olympus IX70 microscope equipped with a Hammastu camera using MetaView™ software (Universal Imaging Corporation, Downington, Pa.). FIG. 4A is a grid of six labeled black and white photographs taken at this 24 hour point with 4× magnification showing the following representative cell cultures from upper left to lower right: a control culture having no treatment, a culture having treatment only with IP-10, a culture having treatment only with IP-10dp, a culture having treatment only with VEGF, a culture having treatment with combined VEGF and IP-10, and a culture having treatment with combined VEGF and IP-10dp.
Analysis of tube formation was preformed using MetaMorph (obtained from Universal Imaging Corporation, Downington, Pa.), and the results reported in the graph of FIG. 4 are shown as a percent of the no-treatment control. The data reported therein are of N=6 and normalized to no treatment (average±SEM), with *P<0.05. As shown by the graph, IP-10 peptide is able to inhibit tube formation. In particular, after incubation for 24 hours, the HMEC-1 cells cultures were able to form tubes in the presence or absence of VEGF165 (compare the photographic images in FIG. 4A).

CXCR3 on HMEC-1 cells = target: T1, CXCR3 on HMEC-1 cells (Homo sapiens, UniProt P49682); assay: Flow cytometry binding of biotin-tagged peptide to HMEC-1 cells
T1 construct: HMEC-1 cells express CXCR3; endogenous in cells; host or cells: HMEC-1 (human dermal microvascular endothelial cells)
T1 sequence (P49682 1-415 isoform P49682-2): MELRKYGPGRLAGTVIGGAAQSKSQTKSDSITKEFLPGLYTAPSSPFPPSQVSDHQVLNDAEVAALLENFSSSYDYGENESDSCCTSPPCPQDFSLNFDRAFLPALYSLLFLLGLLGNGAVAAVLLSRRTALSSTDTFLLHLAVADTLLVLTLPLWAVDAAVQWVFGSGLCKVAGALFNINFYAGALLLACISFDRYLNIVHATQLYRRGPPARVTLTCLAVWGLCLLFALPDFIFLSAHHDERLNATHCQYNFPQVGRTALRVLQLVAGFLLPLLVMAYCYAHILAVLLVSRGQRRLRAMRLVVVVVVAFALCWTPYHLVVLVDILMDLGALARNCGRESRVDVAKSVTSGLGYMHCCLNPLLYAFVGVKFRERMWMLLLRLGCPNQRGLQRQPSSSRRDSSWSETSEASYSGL
Method: In the various experiments described below, unless otherwise noted, Biotin labeling was accomplished according to the following procedure. Sulfo-NHS-LC-Biotin (Thermo Scientific 21327) was prepared to result in a 10 mM solution of Biotin. IP-10, IP-10dp or anti-CXCR3 neutralizing antibody were dissolved in PBS according to result in a 20-fold molar excess of biotin reagent to give a 4-6 biotin groups per peptide molecule. The biotin reagent and IP-10 and/or IP-10dp was mixed and incubated on ice for 2 hours. Appropriate controls were used to determine the levels of biotin incorporation. HMEC-1 cells were washed in ice-cold PBS (pH 8) to remove amine-containing media and proteins. Cells were suspended and Sulfo-NHS-LC-Biotin label peptide was added. Mixture was incubated at 4° C. to reduce active internalization of the biotin reagent for 30 minutes. Cells were then washed three times in PBS+100 mM glycine to quench and remove excess biotin. Cells were then incubated with streptavidin conjugated with FITC and analyzed on a BD FACSCalbur flow cytometer.
To determine whether IP-10dp binds to CXCR3 on human dermal microvascular endothelial cells, we analyzed the ability of Sulfo-LC-Biotin tagged IP-10 and IP-10dp to bind to H MEC-1 cells using flow cytometery. […] The cells were then incubated with FITC conjugated with streptavidin, and then analyzed on a BD FACSCalbur flow cytometer. […]

Q: Which “tubes formed in the presence of VEGF165” value (HMEC-1 cells; IP-10dp 10 μM plus VEGF 75 ng/ml, 24 hours) does the source give for “PESKAIKNLLKAVSKEMSKRSP (IP-10dp; listed as Homo sapiens) [synthetic fragment of IP-10 comprising residues 78-98, the C-terminal α-helical domain]” here?
A: significant reduction

Q: And the “tubes formed compared to control” value (HMEC-1 cells; IP-10dp 10 μM, no VEGF, 24 hours)?
A: significant reduction in tubes formed

Q: What about the “inhibition of tube formation compared with full length IP-10” value (HMEC-1 cells; presence and absence of VEGF, IP-10dp 10 μM vs IP-10 300 ng/ml) of the same sequence?
A: slightly better

Q: What about the “binding to HMEC-1 cells” value (CXCR3 on HMEC-1 cells; Sulfo-LC-Biotin tagged peptide, streptavidin-FITC, flow cytometry) of the same sequence?
A: binds to human endothelial cells

Q: And the “fluorescence intensity of binding to CXCR3 on HMEC-1 cells compared with full length IP-10” value (CXCR3 on HMEC-1 cells; relative to control, biotin-tagged)?
A: slightly lower fluorescence intensity
